Laboratory results taken from patent publication US9238026B2, “Inhibitors of viral replication, their process of preparation and their therapeutical uses” (priority 2011, dated 2016).

system: NL4-3 strain of HIV-1; test: microbe, parasite or virus in culture; assay type: cell-based; settings: Human immunodeficiency virus 1, NL43, 120 h; concentration leading to 50% of cyto-protection; MT4 cells infected with NL4.3 virus; 5 days incubation; CellTiter-Glo; read-out: EC50
Experimental: The antiviral activity, particularly against HIV, of compounds according to the invention is evaluated by the protocol described below.
Preparation of Virus stock of the NL4-3 strain of HIV-1
The virus was prepared as described in Lopez et al (Lopez et al, Proc Natl Acad Sci USA., 2006, 103(40):14947-52, by transfecting 2×10^6 293T cells (CRL-1573, ATCC) with following modifications: 6 μg of NL4-3 proviral DNA molecular clone were mixed with Fugene 6 transfection reagent from Roche, and used according to manufacturer's instructions. Forty eight hours later, transfected cell supernatants were harvested, filtered through 0.45-μm-pore-size filters, quantified for HIV-1 p24 antigen by using a Innotest HIV antigen mAb assay (Ingen) according to manufacturer's instructions, and used in infection experiments.
Serial dilutions of compounds to be tested were prepared in complete RPMI medium from 10 mM DMSO stock solutions, and distributed in a volume of 20 μl in 96 well Falcon 353072 Microtest™ tissue culture plate, in order to get 0.5% DMSO final concentration in each well, after the addition of infected cells. Control wells contained also 0.5% DMSO final concentration but no compound.
MT4 cells (from the NIH AIDS Research and Reference Reagent Program) in RPMI complete medium were counted (10×10^6 cells per well in Falcon 353047 Multiwell™ 24 well) and infected for 2 hours at 37°, at a multiplicity of infection (moi) of 0.0001-0.00001. Cells were then centrifuged 3 min at 3000 rpm, and washed two times in 1 ml PBS to remove viruses that have not entered in cells. Infected cells were resuspended in complete RPMI at 1.25×10^6 cells/ml, and […] of infected cells were distributed in each well containing compounds to be tested or control wells. The plates were then incubated at 37° for 5 days.
Assay used to measure the inhibition of HIV replication by the compounds
(according to Gregg S. Jones et al., Antimicrobial Agents and Chemotherapy, 2009, 53 (3): 1194-1203).
After 5 days of incubation, 50 μl of CellTiter-Glo reagent (Promega Biosciences, Inc., Madison Wis., USA) were added to each well. Cell lysis was carried out at room temperature during 10 min, 150 μl of lysates were transferred in Packard Optiplate 96 well, and luminescence was read on a Fluoroskan (Thermo Scientific).
The EC50, or effective concentration 50, is the concentration of compound leading to 50% of cyto-protection in a Cell-Titer-Glo® viability assay based on MT4 cells infected with NL4.3 virus.

Structure (SMILES)	EC50 [µM]
Cc1sc(C)c(C(OC(C)(C)C)C(=O)O)c1-c1ccccc1Cl (stereo not shown) [Example 51, tert-butoxy-[4-(2-chloro-phenyl)-2,5-dimethyl-thiophen-3-yl]-acetic acid]	41
Cc1sc(C)c(C(OC(C)(C)C)C(=O)O)c1-c1ccc2c(c1)CCCO2 (stereo not shown) [Example 17, 2-(tert-butoxy)-2-[4-(3,4-dihydro-2H-1-benzopyran-6-yl)-2,5-dimethylthiophen-3-yl]acetic acid]	26
CC(C)(C)OC(C(=O)O)c1c(C(F)(F)F)nn(C2CCCCC2)c1-c1ccc2c(c1)CCCO2 (stereo not shown) [Example 54, 2-(tert-butoxy)-2-[1-cyclohexyl-5-(3,4-dihydro-2H-1-benzopyran-6-yl)-3-(trifluoromethyl)-1H-pyrazol-4-yl]acetic acid]	2.2
Cc1sc(Cl)c(-c2ccc3c(c2)CCCO3)c1C(OC(C)(C)C)C(=O)O (stereo not shown) [Example 44, 2-(tert-butoxy)-2-[5-chloro-4-(3,4-dihydro-2H-1-benzopyran-6-yl)-2-methylthiophen-3-yl]acetic acid]	16
Cc1sc(C)c(C(OC(C)(C)C)C(=O)O)c1C1=CCCCC1 (stereo not shown) [Example 29, 2-(tert-butoxy)-2-[4-(cyclohex-1-en-1-yl)-2,5-dimethylthiophen-3-yl]acetic acid]	33
Cc1sc(C)c(C(OC(C)(C)C)C(=O)O)c1C1=CCCCCC1 (stereo not shown) [Example 31, 2-(tert-butoxy)-2-[4-(cyclohept-1-en-1-yl)-2,5-dimethylthiophen-3-yl]acetic acid]	29
CC1=C(c2ccc3c(c2)CCCO3)C(C(OC(C)(C)C)C(=O)O)=C(C)S1(=O)=O (stereo not shown) [Example 18, (tert-butoxy)[4-(3,4-dihydro-2H-1-benzopyran-6-yl)-2,5-dimethyl-1,1-dioxo-1λ^6-thiophen-3-yl]acetic acid]	34
Cc1sc(C)c(C(SC(C)(C)C)C(=O)O)c1-c1ccc2c(c1)CCCO2 (stereo not shown) [Example 32, 2-(tert-butylsulfanyl)-2-[4-(3,4-dihydro-2H-1-benzopyran-6-yl)-2,5-dimethylthiophen-3-yl]acetic acid]	26
Cc1cccc2sc(C(OC(C)(C)C)C(=O)O)c(-c3ccc4c(c3)CCCO4)c12 (stereo not shown) [Example 23, 2-(tert-butoxy)-2-[3-(3,4-dihydro-2H-1-benzopyran-6-yl)-4-methyl-1-benzothiophen-2-yl]acetic acid]	23
Cc1cccc2c1C(c1ccc3c(c1)CCCO3)=C(C(OC(C)(C)C)C(=O)O)S2(=O)=O (stereo not shown) [Example 24, 2-(tert-butoxy)-2-[3-(3,4-dihydro-2H-1-benzopyran-6-yl)-4-methyl-1,1-dioxo-1λ^6-benzothiophen-2-yl]acetic acid]	11
Cc1sc(C)c(C(OC(C)(C)C)C(=O)O)c1-c1ccc2c(c1)CCCC2 (stereo not shown) [Example 39, 2-(tert-butoxy)-2-[2,5-dimethyl-4-(5,6,7,8-tetrahydronaphthalen-2-yl)thiophen-3-yl]acetic acid]	41
Cc1sc(C)c(C(OC(C)(C)C)C(=O)O)c1-c1ccc(Cl)cc1 (stereo not shown) [Example 50, tert-butoxy-[4-(4-chloro-phenyl)-2,5-dimethyl-thiophen-3-yl]-acetic acid]	44

same assay, conditions: Human immunodeficiency virus 1, NL43, MT4, 120 h

Structure (SMILES)	EC50 [µM]
Cc1sc(C)c(C(OC(C)(C)C)C(=O)O)c1C1=CCC(C)(C)CC1 (stereo not shown) [Example 52, tert-butoxy-[4-(4,4-dimethyl-cyclohex-1-enyl)-2,5-dimethyl-thiophen-3-yl]-acetic acid]	33
